Consider 23 compounds from patent US10934310B2, “Inhibitors of Bruton's tyrosine kinase and method of their use” (JANSSEN PHARMACEUTICA NV, priority 2015, dated 2021).

Structures are written as SMILES.

Chain of unphosphorylated-BTK kinase domain (UP-BTK), GST-tagged human BTK (389-659aa) (Q06187 389-659): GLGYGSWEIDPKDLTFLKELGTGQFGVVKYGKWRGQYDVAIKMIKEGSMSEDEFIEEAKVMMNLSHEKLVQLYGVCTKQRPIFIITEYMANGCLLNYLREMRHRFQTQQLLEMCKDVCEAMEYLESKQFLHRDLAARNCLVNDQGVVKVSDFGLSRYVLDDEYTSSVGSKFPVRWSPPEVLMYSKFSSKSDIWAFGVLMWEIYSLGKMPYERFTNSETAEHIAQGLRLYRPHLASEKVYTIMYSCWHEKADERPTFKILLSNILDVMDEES

The target of this test is unphosphorylated-BTK kinase domain (UP-BTK), GST-tagged human BTK (389-659aa) (Homo sapiens (Human), UniProt Q06187). In words: BTK Kinase Lanthascreen Binding Assay. The conditions noted are these: compound, 50 nM Tracer 236, 2 nM anti-GST antibody, 60 minutes; pIC50 = negative log of the IC50 in molar. The method, then: BTK Kinase Lanthascreen Binding Assay:
A BTK kinase lanthascreen binding assay monitors compound binding to unphosphorylated-BTK kinase domain (UP-BTK), by competing with a fluorescent labeled tracer. […] Data were analyzed using Xlfit™ version 5.3 from ID Business Solutions (Guildford), Microsoft Excel add-in. pIC50 refers to the negative log of the IC50 in molar.
(In TR-FRET formats the signal depends on donor and acceptor labels being close together.)
Consider `CC(=O)N[C@@H]1CCC[C@H](NC(=O)c2sc3nccc4c3c2NC(=O)N4c2ccc(Oc3ccccc3)cc2C)C1` (single isomer, unassigned) [Example 180, N-((1S,3R)-3-Acetamidocyclohexyl)-5-(*S)-(2-methyl-4-phenoxyphenyl)-4-oxo-4,5-dihydro-3H-1-thia-3,5,8-triazaacenaphthylene-2-carboxamide], for which the “BTK_I_binding pIC50” value turned out to be 7.94. As to `Cc1cc(Oc2ccccc2)ccc1N1C(=O)Nc2c(C(=O)N[C@@H]3CCC[C@@H](N)C3)sc3nccc1c23` (single isomer, unassigned) [Example 181], the “BTK_I_binding pIC50” value came out at 7.33.

Regarding `C=CC(=O)N[C@@H]1CCC[C@@H](NC(=O)c2sc3nccc4c3c2NC(=O)N4c2ccc(Oc3ccccc3)cc2C)C1` (single isomer, unassigned) [Example 182, N-((1R,3R)-3-Acrylamidocyclohexyl)-5-(*S)-(2-methyl-4-phenoxyphenyl)-4-oxo-4,5-dihydro-3H-1-thia-3,5,8-triazaacenaphthylene-2-carboxamide], the “BTK_I_binding pIC50” value turned out to be 7.66. Then `C=CC(=O)N[C@@H]1CC[C@H](NC(=O)c2sc3nccc4c3c2NC(=O)N4c2ccc(OC(C)C)cc2C)C1` (single isomer, unassigned) [Example 186, N-((1S,3R)-3-Acrylamidocyclopentyl)-5-(*R)-(4-isopropoxy-2-methylphenyl)-4-oxo-4,5-dihydro-3H-1-thia-3,5,8-triazaacenaphthylene-2-carboxamide], with 7.62; and `C=CC(=O)N[C@@H]1CCC[C@H](NC(=O)c2sc3nccc4c3c2NC(=O)N4c2ccc(OC(C)C)cc2C)C1` (single isomer, unassigned) [Example 190, N-((1S,3R)-3-Acrylamidocyclohexyl)-5-(*R)-(4-isopropoxy-2-methylphenyl)-4-oxo-4,5-dihydro-3H-1-thia-3,5,8-triazaacenaphthylene-2-carboxamide], with 7.10. Then `CC(=O)N[C@@H]1CCC[C@@H](NC(=O)c2sc3nccc4c3c2NC(=O)N4c2ccc(Oc3ccccc3)cc2C)C1` (single isomer, unassigned) [Example 195, N-((1R,3R)-3-Acetamidocyclohexyl)-5-(*S)-(2-methyl-4-phenoxyphenyl)-4-oxo-4,5-dihydro-3H-1-thia-3,5,8-triazaacenaphthylene-2-carboxamide], with 7.55; and `C=CC(=O)N[C@H]1CC[C@@H](NC(=O)c2sc3nccc4c3c2NC(=O)N4c2ccc(Oc3ccccc3)cc2C)C1` (single isomer, unassigned) [Example 196, N-((1R,3S)-3-Acrylamidocyclopentyl)-5-(*S)-(2-methyl-4-phenoxyphenyl)-4-oxo-4,5-dihydro-3H-1-thia-3,5,8-triazaacenaphthylene-2-carboxamide], with 7.12. The value for `C=CC(=O)N[C@@H]1CCC[C@H]1NC(=O)c1sc2nccc3c2c1NC(=O)N3c1cnc(Oc2ccccc2)cc1C` (single isomer, unassigned) [Example 200, N-((1R,2R)-2-Acrylamidocyclopentyl)-5-(*S)-(4-methyl-6-phenoxypyridin-3-yl)-4-oxo-4,5-dihydro-3H-1-thia-3,5,8-triazaacenaphthylene-2-carboxamide] was 8.18; that for `C=CC(=O)N[C@H]1CCCC[C@H]1NC(=O)c1sc2nccc3c2c1NC(=O)N3c1ccc(OC2CCC2)nc1C` (single isomer, unassigned) [Example 204, N-((1R,2S)-2-Acrylamidocyclohexyl)-5-(*S)-(6-cyclobutoxy-2-methylpyridin-3-yl)-4-oxo-4,5-dihydro-3H-1-thia-3,5,8-triazaacenaphthylene-2-carboxamide] was 8.03; that for `C=CC(=O)N[C@H]1CCCC[C@H]1NC(=O)c1sc2nccc3c2c1NC(=O)N3c1ccc(OC(C)C)nc1C` (single isomer, unassigned) [Example 209, N-((1R,2S)-2-Acrylamidocyclohexyl)-5-(*S)-(6-isopropoxy-2-methylpyridin-3-yl)-4-oxo-4,5-dihydro-3H-1-thia-3,5,8-triazaacenaphthylene-2-carboxamide] was 7.31. With `Cc1cc(Oc2ccccc2)ncc1N1C(=O)Nc2c(C(=O)N[C@@H]3CCC[C@@H]3NC(=O)CCCl)sc3nccc1c23` (single isomer, unassigned) [Example 210, N-((1R,2S)-2-(3-Chloropropanamido)cyclopentyl)-5-(*S)-(4-methyl-6-phenoxypyridin-3-yl)-4-oxo-4,5-dihydro-3H-1-thia-3,5,8-triazaacenaphthylene-2-carboxamide], the “BTK_I_binding pIC50” value is reported as 7.19. Then `C=CC(=O)N[C@@H]1CCCC[C@H]1NC(=O)c1sc2nccc3c2c1NC(=O)N3c1cnc(Oc2ccccc2)cc1C` (single isomer, unassigned) [Example 213, N-((1R,2R)-2-Acrylamidocyclohexyl)-5-(*S)-(4-methyl-6-phenoxypyridin-3-yl)-4-oxo-4,5-dihydro-3H-1-thia-3,5,8-triazaacenaphthylene-2-carboxamide], with 7.30; and `C=CC(=O)N[C@@H]1CCC[C@@H](NC(=O)c2sc3nccc4c3c2NC(=O)N4c2ccc(OC(C)C)cc2C)C1` (single isomer, unassigned) [Example 215, N-((1R,3R)-3-Acrylamidocyclohexyl)-5-(*R)-(4-isopropoxy-2-methylphenyl)-4-oxo-4,5-dihydro-3H-1-thia-3,5,8-triazaacenaphthylene-2-carboxamide], with 7.13. The value for `C=CC(=O)N[C@@H]1CCC[C@H]1NC(=O)c1sc2nccc3c2c1NC(=O)N3c1cnc(Oc2ccccc2)nc1C` (single isomer, unassigned) [Example 219, N-((1R,2R)-2-Acrylamidocyclopentyl)-5-(*S)-(4-methyl-2-phenoxypyrimidin-5-yl)-4-oxo-4,5-dihydro-3H-1-thia-3,5,8-triazaacenaphthylene-2-carboxamide] was 7.94; that for `C=CC(=O)N[C@H]1CCCC[C@H]1NC(=O)c1sc2nccc3c2c1NC(=O)N3c1cnc(OC2CCC2)cc1C` (single isomer, unassigned) [Example 221, N-((1R,2S)-2-Acrylamidocyclohexyl)-5-(*S)-(6-cyclobutoxy-4-methylpyridin-3-yl)-4-oxo-4,5-dihydro-3H-1-thia-3,5,8-triazaacenaphthylene-2-carboxamide] was 8.29; that for `C=CC(=O)N[C@H]1CC[C@H](NC(=O)c2sc3nccc4c3c2NC(=O)N4c2ccc(Oc3ccccc3)cc2C)C1` (single isomer, unassigned) [Example 226, N-((1S,3S)-3-Acrylamidocyclopentyl)-5-(*S)-(2-methyl-4-phenoxyphenyl)-4-oxo-4,5-dihydro-3H-1-thia-3,5,8-triazaacenaphthylene-2-carboxamide] was 6.85. `Cc1cc(Oc2ccccc2)ccc1N1C(=O)Nc2c(C(=O)N[C@H]3CCC[C@@H](N)C3)sc3nccc1c23` (single isomer, unassigned) [Example 230, N-((1S,3R)-3-Aminocyclohexyl)-5-(*S)-(2-methyl-4-phenoxyphenyl)-4-oxo-4,5-dihydro-3H-1-thia-3,5,8-triazaacenaphthylene-2-carboxamide]: the “BTK_I_binding pIC50” value amounted to 7.24.

As to `C=CC(=O)N[C@H]1CCC[C@H](NC(=O)c2sc3nccc4c3c2NC(=O)N4c2ccc(Oc3ccccc3)cc2C)C1` (single isomer, unassigned) [Example 231, N-((1S,3S)-3-Acrylamidocyclohexyl)-5-(*S)-(2-methyl-4-phenoxyphenyl)-4-oxo-4,5-dihydro-3H-1-thia-3,5,8-triazaacenaphthylene-2-carboxamide], the “BTK_I_binding pIC50” value was 6.56. Then `Cc1cc(Oc2ccccc2)ncc1N1C(=O)Nc2c(C(=O)N[C@@H]3CCC[C@H]3N)sc3nccc1c23` (single isomer, unassigned) [Example 233], with 6.85; and `C=CC(=O)N[C@H]1CCC[C@@H](NC(=O)c2sc3nccc4c3c2NC(=O)N4c2ccc(Oc3ccccc3)cc2C)C1` (single isomer, unassigned) [Example 237, N-((1R,3S)-3-Acrylamidocyclohexyl)-5-(*S)-(2-methyl-4-phenoxyphenyl)-4-oxo-4,5-dihydro-3H-1-thia-3,5,8-triazaacenaphthylene-2-carboxamide], with 6.56; and `C=CC(=O)N[C@H]1CCCC[C@H]1NC(=O)c1sc2nccc3c2c1NC(=O)N3c1ccc(OC(C)C)nc1C` (single isomer, unassigned) [Example 238, N-((1R,2S)-2-Acrylamidocyclohexyl)-5-(*R)-(6-isopropoxy-2-methylpyridin-3-yl)-4-oxo-4,5-dihydro-3H-1-thia-3,5,8-triazaacenaphthylene-2-carboxamide], with 6.95. The value for `Cc1cc(Oc2ccccc2)ccc1N1C(=O)Nc2c(C(=O)N[C@@H]3CC[C@H](N)C3)sc3nccc1c23` (single isomer, unassigned) [Example 240, N-((1R,3S)-3-Aminocyclopentyl)-5-(*S)-(2-methyl-4-phenoxyphenyl)-4-oxo-4,5-dihydro-3H-1-thia-3,5,8-triazaacenaphthylene-2-carboxamide] was 6.72; that for `CC(=O)N[C@H]1CC[C@H](NC(=O)c2sc3nccc4c3c2NC(=O)N4c2ccc(Oc3ccccc3)cc2C)C1` (single isomer, unassigned) [Example 241, N-((1S,3S)-3-Acetamidocyclopentyl)-5-(*S)-(2-methyl-4-phenoxyphenyl)-4-oxo-4,5-dihydro-3H-1-thia-3,5,8-triazaacenaphthylene-2-carboxamide] was 7.26.
